Assay results: the supplement of paper PMC10307832

Legend:
Test in all cases: relative viability (nuclei count vs DMSO), 5 days (fraction); higher = more cells survive
Idelalisib + Bortezomib = compound: CC[C@H](Nc1ncnc2[nH]cnc12)c1nc2cccc(F)c2c(=O)n1-c1ccccc1 [Idelalisib] + CC(C)C[C@H](NC(=O)[C@H](Cc1ccccc1)NC(=O)c1cnccn1)B(O)O [Bortezomib] (partner 0.002 µM)
Outline: (§1)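 Values are medians from duplicate plates. Each reflects relative viability, defined as the nuclei count of treated wells over that of vehicle wells. Lung cancer cell lines in 1536-well plates were pin-tool dosed one day after seeding with one drug alone or with a fixed anchor-drug dose plus five library-drug doses (not always all listed) in √10 steps, then fixed, stained and imaged at 4× after 5 days.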

Idelalisib + Foretinib = compound: CC[C@H](Nc1ncnc2[nH]cnc12)c1nc2cccc(F)c2c(=O)n1-c1ccccc1 [Idelalisib] + COc1cc2c(Oc3ccc(NC(=O)C4(C(=O)Nc5ccc(F)cc5)CC4)cc3F)ccnc2cc1OCCCN1CCOCC1 [Foretinib] (partner 0.25 µM)
Outline: as §1

Pemetrexed + Bortezomib = compound: Nc1nc2[nH]cc(CCc3ccc(C(=O)N[C@@H](CCC(=O)O)C(=O)O)cc3)c2c(=O)[nH]1 [Pemetrexed] + CC(C)C[C@H](NC(=O)[C@H](Cc1ccccc1)NC(=O)c1cnccn1)B(O)O [Bortezomib] (partner 0.002 µM)
Outline: as §1

Pemetrexed + Crizotinib = compound: Nc1nc2[nH]cc(CCc3ccc(C(=O)N[C@@H](CCC(=O)O)C(=O)O)cc3)c2c(=O)[nH]1 [Pemetrexed] + C[C@@H](Oc1cc(-c2cnn(C3CCNCC3)c2)cnc1N)c1c(Cl)ccc(F)c1Cl [Crizotinib] (partner 1 µM)
Outline: as §1

Row | Cell Line | relative viability (Idelalisib + Bortezomib; first compound 0.04 µM) | relative viability (Idelalisib + Bortezomib; first compound 0.1265 µM) | relative viability (Idelalisib + Bortezomib; first compound 0.4 µM) | relative viability (Idelalisib + Bortezomib; first compound 1.265 µM) | relative viability (Idelalisib + Bortezomib; first compound 4 µM) | relative viability (Idelalisib + Foretinib; first compound 0.04 µM) | relative viability (Idelalisib + Foretinib; first compound 0.1265 µM) | relative viability (Idelalisib + Foretinib; first compound 0.4 µM) | relative viability (Idelalisib + Foretinib; first compound 1.265 µM) | relative viability (Idelalisib + Foretinib; first compound 4 µM) | relative viability (Pemetrexed + Bortezomib; first compound 0.002 µM) | relative viability (Pemetrexed + Bortezomib; first compound 0.006325 µM) | relative viability (Pemetrexed + Bortezomib; first compound 0.02 µM) | relative viability (Pemetrexed + Bortezomib; first compound 0.06325 µM) | relative viability (Pemetrexed + Bortezomib; first compound 0.2 µM) | relative viability (Pemetrexed + Crizotinib; first compound 0.002 µM) | relative viability (Pemetrexed + Crizotinib; first compound 0.006325 µM) | relative viability (Pemetrexed + Crizotinib; first compound 0.02 µM) | relative viability (Pemetrexed + Crizotinib; first compound 0.06325 µM) | relative viability (Pemetrexed + Crizotinib; first compound 0.2 µM)
1 | NCI-H2347 | 0.971 | 0.982 | 0.971 | 0.774 | 0.799 | 0.845 | 0.701 | 0.818 | 1.12 | 0.664 | 0.678 | 1.26 | 1.07 | 0.903 | 0.599 | 0.689 | 0.616 | 0.694 | 0.577 | 0.477
2 | LCLC-103H | 1.07 | 1.24 | 1.04 | 1.04 | 0.911 | 0.727 | 0.728 | 0.65 | 0.829 | 0.582 | 1.08 | 1.01 | 1 | 1.23 | 1.02 | 0.94 | 1.01 | 1.07 | 1.08 | 1.07
3 | Calu-6 | 1.13 | 0.991 | 0.937 | 1.02 | 1.07 | 0.895 | 0.909 | 0.844 | 0.894 | 0.767 | 0.963 | 0.937 | 1.01 | 0.971 | 0.942 | 0.814 | 0.754 | 0.922 | 0.72 | 0.68
4 | NCI-H650 | 0.693 | 0.998 | 0.735 | 1.13 | 0.662 | 1.05 | 1.05 | 0.948 | 1.05 | 1 | 0.67 | 0.828 | 0.748 | 0.853 | 0.866 | 0.698 | 0.725 | 0.66 | 0.762 | 0.696
5 | NCI-H1975 | 0.34 | 0.374 | 0.385 | 0.371 | 0.343 | 0.934 | 0.931 | 0.885 | 0.86 | 0.867 | – | 0.427 | 0.386 | 0.309 | 0.213 | – | 0.879 | 0.987 | 0.806 | 0.438
6 | NCI-H2126 | 1.14 | 1.15 | 1.13 | 1.14 | 1.21 | 1.21 | 1.26 | 1.06 | 1.33 | 1.09 | 1.04 | 1.14 | 1.19 | 1.06 | 1.06 | 0.967 | 0.96 | 1.02 | 1.03 | 0.965
7 | NCI-H2087 | 0.765 | 1.01 | 0.787 | 1.07 | 0.671 | 1.28 | 1.04 | 0.842 | 0.908 | 0.579 | 0.834 | 0.639 | 0.919 | 1.04 | 0.523 | 0.945 | 0.818 | 0.912 | 0.85 | 0.786
